The values that follow come from paper PMC3266433 (Antiviral Research, 2011).

The target of data set [1] is T1, DEN2V NS2B-NS3pro (Dengue virus type 2, UniProt P29990). The experiment in a line: Single-point DEN2V NS2B-NS3pro inhibition assay to validate hits. To be noted: single-point validation assay. Type of data set: biochemical, dengue 2 virus.
For another data set, the target named is WNV NS2B-NS3pro (West Nile virus, UniProt Q9Q6P4). Kind of data set: Steady-state kinetics of WNV NS2B-NS3pro inhibition. Type of data set: biochemical.
Chain of WNV NS2B-NS3pro (Q9Q6P4 1428-1467): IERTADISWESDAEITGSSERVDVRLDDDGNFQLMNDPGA
Chain of WNV NS2B-NS3pro (Q9Q6P4 1506-1683): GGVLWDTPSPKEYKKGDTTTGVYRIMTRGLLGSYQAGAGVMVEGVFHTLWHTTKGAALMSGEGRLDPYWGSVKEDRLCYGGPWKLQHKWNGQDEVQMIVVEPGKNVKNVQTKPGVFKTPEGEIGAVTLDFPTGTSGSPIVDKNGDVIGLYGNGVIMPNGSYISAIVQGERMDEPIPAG
In data set [2] the target is T1, DEN2V NS2B-NS3pro. Kind of data set: Steady-state kinetics of DEN2V NS2B-NS3pro inhibition. Type of data set: biochemical, dengue 2 virus. To be noted: BOC-GRR-AMC 0 to 1.2 mM.
The target of data set [3] is T2, bovine pancreatic trypsin (Bos taurus, UniProt P00760).
T2 sequence (P00760 24-246): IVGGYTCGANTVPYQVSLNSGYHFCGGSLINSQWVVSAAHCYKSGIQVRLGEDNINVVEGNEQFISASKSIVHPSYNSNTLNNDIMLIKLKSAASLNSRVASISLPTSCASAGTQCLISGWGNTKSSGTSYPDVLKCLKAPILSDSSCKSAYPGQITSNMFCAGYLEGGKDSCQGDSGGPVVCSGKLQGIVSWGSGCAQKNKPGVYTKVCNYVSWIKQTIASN
Kind of data set: Single-point trypsin inhibition assay to validate selectivity. Type of data set: biochemical. To be noted: 100 μM compound; BOC-GRR-AMC 30 μM.

The test system of a further data set is cells. The note with it: ref Yip et al., 2006; cited from earlier work.
The mark [4] stands for this setting: read-out: Ki1, DEN2V NS2B-NS3pro.
Where [5] appears, read: read-out: Ki2, DEN2V NS2B-NS3pro.

The structures appear in SMILES notation. Structures can show the parent of a compound that is named as a salt. Where two headings read alike, the source gives them in different places.

T1 sequence (P29990 1398-1437): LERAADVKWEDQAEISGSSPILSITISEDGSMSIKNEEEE
T1 sequence (P29990 1476-1653): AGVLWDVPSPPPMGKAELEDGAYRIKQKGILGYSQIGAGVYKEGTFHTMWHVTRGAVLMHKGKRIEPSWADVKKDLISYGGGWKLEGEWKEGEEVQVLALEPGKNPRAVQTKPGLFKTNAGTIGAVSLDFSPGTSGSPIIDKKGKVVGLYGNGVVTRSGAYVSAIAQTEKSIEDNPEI

With `CO[C@H]1C[C@H](O[C@@H]2/C(C)=C/C[C@@H]3C[C@@H](C[C@]4(CC[C@H](C)[C@@H](C5CCCCC5)O4)O3)OC(=O)[C@@H]3C=C(C)/C(=N/O)[C@H]4OC/C(=C\C=C\[C@@H]2C)[C@]43O)O[C@@H](C)[C@@H]1O` [MS24, Selamectin], the “DEN2V protease inhibition (in words)” value on DEN2V NS2B-NS3pro [1] was “inhibited DEN2V protease”. The Ki at WNV NS2B-NS3pro (Ki1, WNV NS2B-NS3pro) worked out at 15 ± 9 µM; at WNV NS2B-NS3pro (Ki2, WNV NS2B-NS3pro) it was 28 ± 6 µM; at DEN2V NS2B-NS3pro [2] (Ki2, DEN2V NS2B-NS3pro), 45 ± 8 µM. The Mechanism result on WNV NS2B-NS3pro (WNV NS2B-NS3pro) and on DEN2V NS2B-NS3pro [2] (DEN2V NS2B-NS3pro) was “mixed” each time. Further, the trypsin inhibition result in data set [3] was “did not inhibit trypsin”.

With `CC[C@H](C)[C@H]1O[C@]2(CC[C@@H]1C)C[C@@H]1C[C@@H](C/C=C(\C)[C@@H](O[C@H]3C[C@H](OC)[C@@H](O[C@H]4C[C@H](OC)[C@@H](O)[C@H](C)O4)[C@H](C)O3)[C@@H](C)/C=C/C=C3\CO[C@@H]4[C@H](O)C(C)=C[C@@H](C(=O)O1)[C@]34O)O2` [MS21, Ivermectin], the “DEN2V protease inhibition (in words)” value at DEN2V NS2B-NS3pro [1] is on record as “inhibited DEN2V protease”. Besides, the Mechanism result on WNV NS2B-NS3pro (WNV NS2B-NS3pro) and on DEN2V NS2B-NS3pro [2] (DEN2V NS2B-NS3pro) was “mixed” throughout. Also, the Ki on WNV NS2B-NS3pro (read-out: Ki1, WNV NS2B-NS3pro) amounted to 55 ± 18 µM; at WNV NS2B-NS3pro (read-out: Ki2, WNV NS2B-NS3pro), 16 ± 4 µM; at DEN2V NS2B-NS3pro [2] (setting [4]) it was 79 ± 21 µM; at DEN2V NS2B-NS3pro [2] (setting [5]), 35 ± 4 µM. In addition, in data set [3], the trypsin inhibition entry was “did not inhibit trypsin”.

As for `CCCCC(CC)CNC(=N)NC(=N)NCCCCCCNC(=N)NC(=N)NCC(CC)CCCC` (stereo not shown) [MS28, Alexidine hydrochloride], the “DEN2V protease inhibition (in words)” value at DEN2V NS2B-NS3pro [1] was “inhibited DEN2V protease”. Further, the Ki at WNV NS2B-NS3pro (Ki1, WNV NS2B-NS3pro) is 12 ± 1.2 µM; at WNV NS2B-NS3pro (Ki2, WNV NS2B-NS3pro) it was 28 ± 5 µM; on DEN2V NS2B-NS3pro [2] (Ki2, DEN2V NS2B-NS3pro), 84 ± 16 µM. Also, the Mechanism entry at WNV NS2B-NS3pro (WNV NS2B-NS3pro) is “mixed”; at DEN2V NS2B-NS3pro [2] (DEN2V NS2B-NS3pro), “mixed inhibition mechanism”. The trypsin inhibition result in data set [3] was “did not inhibit trypsin”. Also, the “CC50 (cell viability reduced by 50%)” value in the data set on cells is “low micromolar”.

In the case of `Cc1cc(C(C)(C)CC(C)(C)C)ccc1OCCOCC[N+](C)(C)Cc1ccccc1.[Cl-]` [MS22, Methylbenzethonium chloride], the “DEN2V protease inhibition (in words)” value at DEN2V NS2B-NS3pro [1] is recorded as “inhibited DEN2V protease”. Further, the Mechanism entry at WNV NS2B-NS3pro (WNV NS2B-NS3pro) and on DEN2V NS2B-NS3pro [2] (DEN2V NS2B-NS3pro) was “mixed” in each case. Also, the Ki at WNV NS2B-NS3pro (read-out: Ki1, WNV NS2B-NS3pro) was determined as 141 ± 20 µM; on WNV NS2B-NS3pro (read-out: Ki2, WNV NS2B-NS3pro), 307 ± 80 µM; at DEN2V NS2B-NS3pro [2] (setting [4]), 322 ± 81 µM; at DEN2V NS2B-NS3pro [2] (setting [5]) it was 160 ± 39 µM. The trypsin inhibition entry in data set [3] is reported as “did not inhibit trypsin”.
